Here are results for 4 compounds from patent US9963464B2, “Macrocyclic compounds” (Bayer Pharma Aktiengesellschaft, priority 2014, dated 2018).

The test system of one test is B16F10 cells. Briefly: Proliferation assay B16F10. The format is cell-based, mouse. The settings on record: 4 days, crystal violet, read-out: Inhibition of B16F10 cell proliferation IC50. On the procedure: Cultivated tumour cells (HeLa, human cervical tumour cells, ATCC CCL-2; NCI-H460, human non-small cell lung carcinoma cells, ATCC HTB-177; A2780, human ovarian carcinoma cells, ECACC #93112519; DU 145, hormone-independent human prostate carcinoma cells, ATCC HTB-81; HeLa-MaTu-ADR, multidrug-resistant human cervical carcinoma cells, EPO-GmbH Berlin; Caco-2, human colorectal carcinoma cells, ATCC HTB-37; B16F10, mouse melanoma cells, ATCC CRL-6475) were plated at a density of 5,000 cells/well (DU145, HeLa-MaTu-ADR), 3,000 cells/well (NCI-H460, HeLa), 2,500 cells/well (A2780), 1,500 cells/well (Caco-2), or 1,000 cells/well (B16F10) in a 96-well multititer plate in 200 μL of their respective growth medium supplemented 10% fetal calf serum. After 24 hours, the cells of one plate (zero-point plate) were stained with crystal violet (see below), while the medium of the other plates was replaced by fresh culture medium (200 μl), to which the test substances were added in various concentrations (0 μM, as well as in the range of 0.001-10 μM). The cells were incubated for 4 days in the presence of test substances. Cell proliferation was determined by staining the cells with crystal violet: the cells were fixed by adding 20 μl/measuring point of an 11% glutaric aldehyde solution for 15 minutes at room temperature. After three washing cycles of the fixed cells with water, the plates were dried at room temperature. The cells were stained by adding 100 μl/measuring point of a 0.1% crystal violet solution (pH 3.0). After three washing cycles of the stained cells with water, the plates were dried at room temperature. The dye was dissolved by adding 100 μl/measuring point of a 10% acetic acid solution. The extinction was determined by photometry at a wavelength of 595 nm. The change of cell number, in percent, was calculated by normalization of the measured values to the extinction values of the zero-point plate (=0%) and the extinction of the untreated (0 μm) cells (=100%). The IC50 values (inhibitory concentration at 50% of maximal effect) were determined by means of a 4 parameter fit. Non-adherent MOLM-13 human acute myeloid leukemia cells (DSMZ ACC 554) were seeded at a density of 5,000 cells/well in a 96-well multititer plate in 100 μL of growth medium supplemented 10% fetal calf serum. After 24 hours, cell viability of one plate (zero-point plate) was determined with the Cell Titre-Glo Luminescent Cell Viability Assay (Promega), while 50 μL of test compound containing medium was added to the wells of the other plates (final concentrations in the range of 0.001-1 μM and DMSO controls). Cell viability was assessed after 72-hour exposure with the Cell Titre-Glo Luminescent Cell Viability Assay (Promega). IC50 values (inhibitory concentration at 50% of maximal effect) were determined by means of a 4 parameter fit on measurement data which were normalized to vehicle (DMSO) treated cells (=100%) and measurement readings taken immediately before compound exposure (=0%).

Test [1] has as its target T1, human PTEFb (CDK9/Cyclin T1) (Homo sapiens, UniProt P50750).
T1 construct: purchased ProQinase, Freiburg, Germany
Nature of the test: Surface plasmon resonance PTEFb. The format is binding. The settings on record: SPR; for Target resident time: 1/koff; for koff: read-out: Dissociation rate constant koff. An excerpt: 8. Surface Plasmon Resonance PTEFb
The term “surface plasmon resonance”, as used herein, refers to an optical phenomenon that allows for the analysis of the reversible associations of biological molecules in real time within a biosensor matrix, for example using the Biacore® system (GE Healthcare Biosciences, Uppsala, Sweden). Biacore® uses the optical properties of surface plasmon resonance (SPR) to detect alterations in the refractive index of a buffer, which changes as molecules in solution interact with the target immobilized on the surface. In brief, proteins are covalently bound to the dextran matrix at a known concentration and a ligand for the protein is injected through the dextran matrix. Near infrared light, directed onto the opposite side of the sensor chip surface is reflected and also induces an evanescent wave in the gold film, which in turn, causes an intensity dip in the reflected light at a particular angle known as the resonance angle. If the refractive index of the sensor chip surface is altered (e.g. by compound binding to the bound protein) a shift occurs in the resonance angle. This angle shift can be measured.
The term “KD”, as used herein, is intended to refer to the equilibrium dissociation constant of a particular compound/target protein complex.
The term “koff”, as used herein, is intended to refer to the off-rate, i.e. the dissociation rate constant of a particular compound/target protein complex.
The term “target residence time”, as used herein, is intended to refer to the inverse of the rate of dissociation rate constant (1/koff) of a particular compound/target protein complex.
The ability of the compounds according to the invention to bind human PTEFb may be determined using surface plasmon resonance (SPR). KD values and koff values may be measured using a Biacore® T200 instrument (GE Healthcare, Uppsala, Sweden).
For SPR measurements, recombinant human PTEFb (CDK9/Cyclin T1 recombinant human active protein kinase purchased from ProQinase, Freiburg, Germany) is immobilized using standard amine coupling (Johnsson B et al, Anal Biochem. 1991 Nov. 1; 198(2):268-77). Briefly, carboxymethylated dextran biosensor chips (CM7, GE Healthcare) are activated with N-ethyl-N′-(3-dimethylaminopropyl)-carbodiimide hydrochloride (EDC) and N-hydroxysuccinimide (NHS) according to the supplier's instructions. Human PTEFb is diluted in 1×HBS-EP+(GE Healthcare) into 30 μg/ml and injected on the activated chip surface. Subsequently, a 1:1 solution of 1 M ethanolamine-HCl (GE Healthcare) and 1×HBS-EP is injected to block unreacted groups, resulting in approximately 4000 response units (RU) of immobilized protein. A reference surface is generated by treatment with NHS-EDC and ethanolamine-HCl. Compounds are dissolved in 100% dimethylsulfoxide (DMSO, Sigma-Aldrich, Germany) to a concentration of 10 mM and subsequently diluted in running buffer (1×HBS-EP+pH 7.4 [generated from HBS-EP+Buffer 10× (GE Healthcare): 0.1 M HEPES, 1.5 M NaCl, 30 mM EDTA and 0.5% v/v Surfactant P20], 1% v/v DMSO). For kinetic measurements, four-fold serial dilutions of compound (0.39 nM to 100 nM) are injected over immobilized protein. Binding kinetics is measured at 25° C. with a flow rate of 50 μl/min in running buffer. Compound concentrations are injected for 60 s followed by a dissociation time of 1800 s. The resulting sensorgrams are double-referenced against the reference surface as well as against blank injections.
The double-referenced sensorgrams are fit to a simple reversible Langmuir 1:1 reaction mechanism as implemented in the Biacore® T200 evaluation software 2.0 (GE Healthcare). In cases were full compound dissociation has not occurred at the end of the dissociation phase, the Rmax parameter (response at saturation) is fit as local variable. In all other cases, Rmax is fit as global variable.
For orientation: SPR reads the build-up and loss of mass on a sensor chip optically.

Setting [2] is: 25° C., below 5E-5 s^-1 not resolvable.

Where two headings read alike, the source gives them in different places.

T1 sequence (P50750 whole entry): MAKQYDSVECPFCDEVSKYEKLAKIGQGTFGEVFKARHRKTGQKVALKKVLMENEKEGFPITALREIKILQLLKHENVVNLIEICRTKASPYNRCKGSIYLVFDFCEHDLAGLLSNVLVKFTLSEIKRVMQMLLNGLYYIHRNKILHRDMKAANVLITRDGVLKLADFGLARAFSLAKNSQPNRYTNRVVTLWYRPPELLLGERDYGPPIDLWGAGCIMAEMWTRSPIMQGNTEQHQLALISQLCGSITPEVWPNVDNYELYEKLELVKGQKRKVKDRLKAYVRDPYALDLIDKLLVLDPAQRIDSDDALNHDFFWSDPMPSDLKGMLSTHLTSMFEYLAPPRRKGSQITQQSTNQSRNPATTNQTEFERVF
T1 sequence (O60563 whole entry partner): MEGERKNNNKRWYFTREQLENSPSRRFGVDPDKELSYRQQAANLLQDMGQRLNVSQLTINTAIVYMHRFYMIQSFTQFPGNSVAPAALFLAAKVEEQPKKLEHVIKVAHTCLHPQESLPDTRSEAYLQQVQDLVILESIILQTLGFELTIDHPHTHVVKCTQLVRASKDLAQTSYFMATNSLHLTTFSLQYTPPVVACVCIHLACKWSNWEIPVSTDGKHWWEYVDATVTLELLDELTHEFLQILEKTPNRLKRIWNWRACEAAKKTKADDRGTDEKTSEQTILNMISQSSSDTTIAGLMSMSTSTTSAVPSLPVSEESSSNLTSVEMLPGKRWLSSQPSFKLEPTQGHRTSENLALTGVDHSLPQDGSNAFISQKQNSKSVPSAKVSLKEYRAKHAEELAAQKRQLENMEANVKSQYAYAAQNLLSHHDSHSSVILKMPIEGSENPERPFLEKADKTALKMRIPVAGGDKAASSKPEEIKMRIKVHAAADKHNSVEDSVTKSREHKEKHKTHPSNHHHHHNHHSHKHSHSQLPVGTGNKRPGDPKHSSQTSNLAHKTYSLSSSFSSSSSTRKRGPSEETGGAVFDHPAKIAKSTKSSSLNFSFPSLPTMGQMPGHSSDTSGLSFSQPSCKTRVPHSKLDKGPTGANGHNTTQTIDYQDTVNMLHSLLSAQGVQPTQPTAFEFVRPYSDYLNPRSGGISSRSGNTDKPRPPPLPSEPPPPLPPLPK

For `CS(=N)(=O)Cc1cc2nc(c1)OCCCOc1cc(F)ccc1-c1cc(ncc1F)N2` (single isomer, unassigned; enantiomer 2) [Example 7, 15,19-Difluoro-8-[(S-methylsulfonimidoyl)methyl]-3,4-dihydro-2H,11H-10,6-(azeno)-12,16-(metheno)-1,5,11,13-benzodioxadiazacyclooctadecine; Enantiomer 2], the IC50 in the test with B16F10 cells was found to be 7 nM. The Dissociation rate constant koff in test [1] (setting [2]) was under 5e-05 s⁻¹. The Target resident time in test [1] was over 333 min.
One may read the koff as a measure of how fast the partners let go of each other. Turning to `CSCc1cc2nc(c1)OCCCOc1cc(F)ccc1-c1cc(ncc1F)N2` [Example 3, 15,19-Difluoro-8-[(methylsulfanyl)methyl]-3,4-dihydro-2H,11H-10,6-(azeno)-12,16-(metheno)-1,5,11,13-benzodioxadiazacyclooctadecine], the IC50 with B16F10 cells (Mus musculus, B16-F10, 96 h) turned out to be 81 nM. In test [1] (setting [2]), the koff was under 5e-05 s⁻¹. This compound also displayed a Target resident time in test [1] of over 333 min.
For `CS(=O)(=O)Cc1cc2nc(c1)OCCCOc1cc(F)ccc1-c1cc(ncc1F)N2` [Example 8, 15,19-difluoro-8-[(methylsulfonyl)methyl]-3,4-dihydro-2H,11H-10,6-(azeno)-12,16-(metheno)-1,5,11,13-benzodioxadiazacyclooctadecine] the same measures were 9 nM, under 5e-05 s⁻¹ and over 333 min.
The like results for `CSCc1cc2nc(c1)OCCCCOc1cc(F)ccc1-c1cc(ncc1F)N2` [Example 12, 16,20-Difluoro-9-[(methylsulfanyl)methyl]-2,3,4,5-tetrahydro-12H-11,7-(azeno)-13,17-(metheno)-1,6,12,14-benzodioxadiazacyclononadecine] were, in that order, 343 nM, under 5e-05 s⁻¹ and over 333 min.
